Measured values reported in patent publication US5244898A, “Benzoheterocyclic compounds” (Otsuka Pharmaceutical Co., Ltd., priority 1991, dated 1993).
Structures can show the parent of a compound that is named as a salt.

molecular target: T1, V2 Receptor (Rattus norvegicus, UniProt Q00788); assay: V2 Receptor Binding Assay ([3H]-Arg-vasopressin, rat kidney plasma membrane); conditions: 4° C., pH 8.0
T1 construct: rat kidney plasma membrane preparations; from tissue; host or cells: rat kidney plasma membranes
T1 sequence (Q00788 whole entry): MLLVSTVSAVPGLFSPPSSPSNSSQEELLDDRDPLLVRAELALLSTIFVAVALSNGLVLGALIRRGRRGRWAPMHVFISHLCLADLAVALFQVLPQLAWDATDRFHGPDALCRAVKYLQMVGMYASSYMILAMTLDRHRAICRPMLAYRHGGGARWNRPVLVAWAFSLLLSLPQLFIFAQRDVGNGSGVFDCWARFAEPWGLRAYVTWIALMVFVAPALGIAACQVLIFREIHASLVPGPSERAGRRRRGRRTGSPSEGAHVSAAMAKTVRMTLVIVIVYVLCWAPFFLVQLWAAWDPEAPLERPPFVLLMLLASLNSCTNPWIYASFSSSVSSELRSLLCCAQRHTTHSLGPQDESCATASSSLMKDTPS
Description: Chem., 253, 3211 (1978)], the plasma membrane (100000 dpm, 4×10^-10M) of [^3 H]-Arg-vasopressin and a test compound (0.6 mg, 10^-10 -10^-5 M) are incubated at 4° C. for 3 hours in 100 mM Tris-HCl buffer pH: 8.0 (250 μl ) containing 5 mM MgCl2, 1 mM EDTA and 0.1 % BSA. After incubation, the mixture is filtered using the glass filter (GF/F) so as to separate the membrane preparation combining with vasopressin and then washed twice with the buffer (5 ml). This glass filter is taken out and mixed with liquid scintillation cocktail. The amount of [^3 H]-vasopressin combining with the membrane is measured by liquid scintillation counter and the rate of the inhibitory effect of the test compound is estimated according to the following equation. [formula]
C1 : The amount of [^3 H]-vasopressin combining with the membrane in the presence of the test compound of a known amount.
C0 : The amount of [^3 H]-vasopressin combining with the membrane in the absence of the test compound.
B1 : The amount of [3H-vasopressin combining with the membrane in the presence of the excess amount of vasopressin (10^-6 M).
The results are expressed as IC50 value, which is the concentration of the test compound required to achieve the inhibitory effect in the rate of 50%.

SMILES	IC50 [nM]
CSCC[C@H](N)C(=O)OC1CCCN(C(=O)c2ccc(NC(=O)c3ccccc3C)cc2Cl)c2ccccc21 (single isomer, unassigned) [Test Compound 10, 5-(L-Methionyloxy)-1-[2-chloro-4-(2-methylbenzoylamino)benzoyl]-2,3,4,5-tetrahydro-1H-benzazepine hydrochloride]	83
CN(C)C1CCCN(C(=O)c2ccc(NC(=O)Cc3ccccc3[N+](=O)[O-])cc2)c2ccccc21 (stereo not drawn) [Test Compound 7, 5-Dimethylamino-1-{4-[2-(2-nitrophenyl)acetylamino]benzoyl}-2,3,4,5-tetrahydro-1H-benzazepine]	140
CN(C)C(=O)COc1ccc2c(c1)C(N(C)C)CCCN2C(=O)c1ccc(NC(=O)c2ccccc2Cl)cc1Cl (stereo not drawn) [Test Compound 20, 5-Dimethylamino-7-dimethylaminocarbonylmethoxy-1-[2-chloro-4-(2-chlorobenzoylamino)benzoyl]-2,3,4,5 tetrahydro-1H-benzazepine]	5600
COc1ccccc1CC(=O)Nc1ccc(C(=O)N2CCCC(N(C)C)c3ccccc32)cc1 (stereo not drawn) [Test Compound 4, 5-Dimethylamino-1-{4-[2-(2-methoxyphenyl)acetylamino]benzoyl}-2,3,4,5-tetrahydro-1H-benzazepine]	61
CC(=O)N1CCN(CCC2CCCN(C(=O)c3ccc(NC(=O)c4ccccc4C)cc3C)c3ccc(Cl)cc32)CC1 (stereo not drawn) [Test Compound 53, 5-[2-(1-Acetyl-1-piperazinyl)ethyl]-7-chloro-1-[2-methyl-4-(2-methylbenzoylamino)benzoyl]-2,3,4,5-tetrahydro-1H-benzazepine hydrochloride]	29
COc1cc(NC(=O)c2ccccc2OCCCCN2CCN(C(C)=O)CC2)ccc1C(=O)N1CCCCc2cc(Cl)ccc21 [Test Compound 49]	52

These reach a lower IC50. Values come first.

IC50 [nM]	SMILES
13	Cc1ccccc1C(=O)Nc1ccc(C(=O)N2CCCC(CC(=O)N3CCN(C)CC3)c3cc(Cl)ccc32)c(C)c1 (stereo not drawn) [Test Compound 41, 5-[(4-Methyl-1-piperazinyl)carbonylmethyl]-7-chloro-1-[2-methyl-4-(2-methylbenzoylamino]benzoyl]-2,3,4,5-tetrahydro-1H-benzazepine]
11	COC(=O)[C@@H]1CCCN1C(=O)COC1CCCN(C(=O)c2ccc(NC(=O)c3ccccc3C)cc2Cl)c2ccc(F)cc21 (stereo partly drawn) [Test Compound 23, 5-[(2-β-Methoxycarbonyl)-1-pyrrolidinylcarbonylmethoxy]-7-fluoro-1-[2-chloro-4-(2-methylbenzoylamino)benzoyl]-2,3,4,5-tetrahydro-1H-benzazepine]
6	CCOC(=O)CNC(=O)COC1CCCN(C(=O)c2ccc(NC(=O)c3ccccc3C)cc2Cl)c2ccc(F)cc21 (stereo not drawn) [Test Compound 21, 5-Ethoxycarbonylmethylaminocarbonylmethoxy-7-fluoro-1-[2-chloro-4-(2-methylbenzoylamino)benzoyl]-2,3,4,5-tetrahydro-1H-benzazepine]
3	Cc1ccccc1C(=O)Nc1ccc(C(=O)N2CCCC(CC(=O)NCC(N)=O)c3cc(Cl)ccc32)c(C)c1 (stereo not drawn) [Test Compound 62, 5-(Carbamoylmethylaminocarbonylmethyl)-7-chloro-1-[2-methyl-4-(2-methylbenzoylamino)benzoyl]-2,3,4,5-tetrahydro-1H-benzazepine]
19	COc1cc(NC(=O)c2ccccc2Cl)ccc1C(=O)N1CCCC(CC(=O)O)c2cc(Cl)ccc21 (stereo not drawn) [Test Compound 31, 5-Carboxymethyl-7-chloro-1-[2-methoxy-4-(2-chlorobenzoylamino)benzoyl]-2,3,4,5-tetrahydro-1H-benzazepine]
9	Cc1ccccc1C(=O)Nc1ccc(C(=O)N2CCCC(OCC(=O)NC3CCNCC3)c3cc(Cl)ccc32)c(C)c1 (stereo not drawn) [Test Compound 57, 7-Chloro-5-[(4-piperidinyl)aminocarbonylmethoxy]-1-[2-methyl-4-(2-methylbenzoylamino)benzoyl]-2,3,4,5-tetrahydro-1H-benzazepine hydrochloride]
